In paper PMC11010885, “Functional Analysis and Tissue-Specific Expression of Calcitonin and CGRP with RAMP-Modulated Receptors CTR and CLR in Chickens” (Animals : an Open Access Journal from MDPI, 2024):
Entries after “also recorded” stand apart in the source; their conditions may differ.

Experiments:
Type in all cases: cell-based
chicken CLR + RAMP2 [1] = experiment: MAPK/ERK pGL4-SRE-luciferase reporter assay, CLR + RAMP2 in CHO cells; details: 10^−12 M to 10^−6 M, 6 h, mean ± SEM, n = 3, read-out: EC50, MAPK/ERK signaling pathway
Description: (§1) Chinese hamster ovary (CHO) cells were cultured in Dulbecco’s modified Eagle’s medium (DMEM) supplemented with 10% (vol/vol) fetal bovine serum (HyClone, Logan, UT, USA), 100 U/mL penicillin G and 100 μg/mL streptomycin. The cells were maintained in a 90 mm culture dish (Nunc, Rochester, NY, USA) and incubated at 37 °C with 5% CO2. To investigate the signaling pathways associated with each receptor in CHO cells, three different reporter systems (pGL3-CRE-luciferase, pGL4-SRE-luciferase, and pGL3-NFAT-RE-luciferase) were utilized to monitor intracellular cAMP/PKA and MAPK/ERK signaling pathways and calcium mobilization of the activated receptors, respectively.
(§2) Prior to the transfection procedure, the cells were initially cultured in 6-well plates (Nunc, Rochester, NY, USA), maintaining a seeding density of approximately 300,000 cells per well. Upon achieving approximately 70% confluence, the cells underwent a co-transfection process. […] The fluorescence activity of the luciferase in each treatment group was measured using a multimode microplate reader (TriStar LB941, Berthold Technologies, Bad Wildbad, Germany). Finally, the fluorescence activity of each treatment group was expressed as a relative increase ratio compared to the control group.

chicken CLR + RAMP3 [2] = experiment: MAPK/ERK pGL4-SRE-luciferase reporter assay, CLR + RAMP3 in CHO cells; details: 10^−12 M to 10^−6 M, 6 h, mean ± SEM, n = 3, read-out: EC50, MAPK/ERK signaling pathway
Description: as §1, §2

chicken CTR [3] = experiment: Calcium pGL3-NFAT-RE-luciferase reporter assay, CTR + pcDNA in CHO cells; details: 10^−12 M to 10^−6 M, 6 h, mean ± SEM, n = 3, read-out: EC50, calcium signaling pathway
Description: as §1, §2

chicken CTR + RAMP1 = experiment: Calcium pGL3-NFAT-RE-luciferase reporter assay, CTR + RAMP1 in CHO cells; details: 10^−12 M to 10^−6 M, 6 h, mean ± SEM, n = 3, read-out: EC50, calcium signaling pathway
Description: as §1, §2

chicken CTR + RAMP2 = experiment: Calcium pGL3-NFAT-RE-luciferase reporter assay, CTR + RAMP2 in CHO cells; details: CTR + RAMP2, CHO cells, pGL3-NFAT-RE-luciferase, 10^−12 M to 10^−6 M, 6 h; mean ± SEM, n = 3; read-out: EC50, calcium signaling pathway
Description: as §1
(§3) Prior to the transfection procedure, the cells were initially cultured in 6-well plates (Nunc, Rochester, NY, USA), maintaining a seeding density of approximately 300,000 cells per well. Upon achieving approximately 70% confluence, the cells underwent a co-transfection process. This procedure entailed the introduction of 700 ng of various luciferase reporter constructs (namely, pGL3-CRE-luciferase, pGL4-SRE-luciferase, or pGL3-NFAT-RE-luciferase) combined with 200 ng of a specific receptor plasmid (CTR or CLR) and 1000 ng of either RAMP1, RAMP2, RAMP3 expression plasmids, or alternatively, the empty pcDNA3.1 (+) vector. A volume of 5.7 μL of PEI MAX was used in 200 μL of buffer following the manufacturer’s protocol. After 24 h of incubation, the transfected CHO cells were subcultured in 96-well plates and passaged for an additional 24 h before peptide treatment. Then, the medium from the 96-well plates was removed, and the cells were treated with chicken CT/CGRP-containing medium (or untreated medium as a control) at concentrations ranging from 10^−12 M to 10^−6 M for 6 h. […] The fluorescence activity of the luciferase in each treatment group was measured using a multimode microplate reader (TriStar LB941, Berthold Technologies, Bad Wildbad, Germany). Finally, the fluorescence activity of each treatment group was expressed as a relative increase ratio compared to the control group.

chicken CTR + RAMP3 = experiment: Calcium pGL3-NFAT-RE-luciferase reporter assay, CTR + RAMP3 in CHO cells; details: 10^−12 M to 10^−6 M, 6 h, mean ± SEM, n = 3, read-out: EC50, calcium signaling pathway
Description: as §1, §2

chicken CLR = experiment: Calcium pGL3-NFAT-RE-luciferase reporter assay, CLR + pcDNA in CHO cells; details: 10^−12 M to 10^−6 M, 6 h, mean ± SEM, n = 3, read-out: EC50, calcium signaling pathway
Description: as §1, §2

chicken CLR + RAMP1 [4] = experiment: Calcium pGL3-NFAT-RE-luciferase reporter assay, CLR + RAMP1 in CHO cells; details: 10^−12 M to 10^−6 M, 6 h, mean ± SEM, n = 3, read-out: EC50, calcium signaling pathway
Description: as §1, §2

chicken CLR + RAMP2 [5] = experiment: Calcium pGL3-NFAT-RE-luciferase reporter assay, CLR + RAMP2 in CHO cells; details: CLR + RAMP2, CHO cells, pGL3-NFAT-RE-luciferase, 10^−12 M to 10^−6 M, 6 h; mean ± SEM, n = 3; read-out: EC50, calcium signaling pathway
Description: as §1, §3

chicken CLR + RAMP3 [6] = experiment: Calcium pGL3-NFAT-RE-luciferase reporter assay, CLR + RAMP3 in CHO cells; details: 10^−12 M to 10^−6 M, 6 h, mean ± SEM, n = 3, read-out: EC50, calcium signaling pathway
Description: as §1, §2

chicken CTR [7] = experiment: Western blot CREB phosphorylation, CTR in CHO cells; details: 10 nM, 10 min, n = 3
Description: (§4) To assess whether the activation of chicken CTR and CLR, along with the presence of RAMPs, can augment the phosphorylation levels of cAMP response element-binding protein (CREB), 200 ng of CTR or CLR expression plasmids were combined with 1000 ng of chicken RAMPs or an empty pcDNA3.1 (+) vector in a 100 μL buffer. The resulting mixture was then transfected into CHO cells in a 12-well plate (Nunc, Rochester, NY, USA) using 3.6 μL of PEI MAX transfection reagent. After a 24 h incubation period, the cells were exposed to chicken CT (10 nM) or CGRP (10 nM) for 10 min. Subsequently, the culture medium was removed, and the cells were lysed according to the manufacturer’s instructions. Western blot analysis was performed to quantify the levels of CREB and phosphorylated CREB (p-CREB). The optical densities were analyzed and normalized using the software, ImageJ 1.52a (National Institutes of Health, Bethesda, MD, USA). The relative expression of p-CREB/CREB was determined by calculating the ratio of the optical density to that of the control without peptide treatment (0 min).

chicken CTR + RAMPs = experiment: Western blot CREB phosphorylation, CTR + RAMPs in CHO cells; details: 10 nM, 10 min, n = 3
Description: as §4

chicken CLR + RAMP1 [8] = experiment: Western blot CREB phosphorylation, CLR + RAMP1 in CHO cells; details: 10 nM, 10 min, n = 3
Description: as §4

chicken CLR + RAMP3 [9] = experiment: Western blot CREB phosphorylation, CLR + RAMP3 in CHO cells; details: 10 nM, 10 min, n = 3
Description: as §4

[10] = test system: chicken CTR in the absence or presence of RAMPs; experiment: cAMP/PKA pGL3-CRE-luciferase reporter assay, CTR without and with RAMPs compared
Description: as §1, §3

[11] = test system: chicken CLR in the absence or presence of RAMPs; experiment: cAMP/PKA pGL3-CRE-luciferase reporter assay, CLR without and with RAMPs compared
Description: as §1
Prior to the transfection procedure, the cells were initially cultured in 6-well plates (Nunc, Rochester, NY, USA), maintaining a seeding density of approximately 300,000 cells per well. Upon achieving approximately 70% confluence, the cells underwent a co-transfection process. This procedure entailed the introduction of 700 ng of various luciferase reporter constructs (namely, pGL3-CRE-luciferase, pGL4-SRE-luciferase, or pGL3-NFAT-RE-luciferase) combined with 200 ng of a specific receptor plasmid (CTR or CLR) and 1000 ng of either RAMP1, RAMP2, RAMP3 expression plasmids, or alternatively, the empty pcDNA3.1 (+) vector. A volume of 5.7 μL of PEI MAX was used in 200 μL of buffer following the manufacturer’s protocol. After 24 h of incubation, the transfected CHO cells were subcultured in 96-well plates and passaged for an additional 24 h before peptide treatment. Then, the medium from the 96-well plates was removed, and the cells were treated with chicken CT/CGRP-containing medium (or untreated medium as a control) at concentrations ranging from 10^−12 M to 10^−6 M for 6 h. Subsequently, the cells were harvested for luciferase assays by lysing them in 1 × passive lysis buffer. To measure the luciferase activity of the cell lysate, 40 μL of luciferase assay reagent (Promega, Madison, WI, USA) was mixed with the cell lysate following the manufacturer’s instructions. The fluorescence activity of the luciferase in each treatment group was measured using a multimode microplate reader (TriStar LB941, Berthold Technologies, Bad Wildbad, Germany). Finally, the fluorescence activity of each treatment group was expressed as a relative increase ratio compared to the control group.

In the case of calcitonin gene-related peptide [CGRP], the EC50 (chicken CLR + RAMP2 [1]) is reported as 90.9 ± 17.4 nM, the EC50 (chicken CLR + RAMP3 [2]) is reported as 4.31 ± 1.73 nM and the EC50 (chicken CTR [3]) is reported as > 100 nM. The EC50 (chicken CTR + RAMP1) was > 100 nM, the EC50 (chicken CTR + RAMP2) was > 100 nM and the EC50 (chicken CTR + RAMP3) was > 100 nM. The EC50 (chicken CLR) was > 100 nM, the EC50 (chicken CLR + RAMP1 [4]) was 0.15 ± 0.11 nM and the EC50 (chicken CLR + RAMP2 [5]) was > 100 nM. For the same substance, the EC50 (chicken CLR + RAMP3 [6]) was > 100 nM, the “CREB phosphorylation (p-CREB/CREB vs. control, 0 min)” value (chicken CTR [7]) was “significantly increased the CREB phosphorylation” and the “CREB phosphorylation (p-CREB/CREB vs. control, 0 min)” value (chicken CTR + RAMPs) was “significantly increased the CREB phosphorylation”. The “CREB phosphorylation (p-CREB/CREB vs. control, 0 min)” value (chicken CLR + RAMP1 [8]) was “significantly enhanced the CREB phosphorylation”, the “CREB phosphorylation (p-CREB/CREB vs. control, 0 min)” value (chicken CLR + RAMP3 [9]) was “significantly enhanced the CREB phosphorylation” and the “effect of RAMP co-expression on sensitivity of CTR” value ([10]; CHO cells, pGL3-CRE-luciferase) was “co-expression of RAMP1 or RAMP3 significantly increased the sensitivity of CTR to CGRP”. For the same substance, the “rank order of receptor sensitivity” value ([10]; CTR without/with RAMPs) was “CTR + RAMP1 ≈ CTR + RAMP3 > CTR + RAMP2 ≈ CTR”, the “effect of RAMP co-expression on sensitivity of CLR” value ([11]; CHO cells, pGL3-CRE-luciferase) was “a significant increase in CLR’s sensitivity to CGRP with RAMP1 and RAMP3 co-expression; also recorded: RAMP2 co-expression led to a limited enhancement in sensitivity” and the “rank order of receptor sensitivity” value ([11]; CLR without/with RAMPs) was “CLR + RAMP1 > CLR + RAMP3 >> CLR + RAMP2 >> CLR”.
